# Data: patent US9822114B2, “Tricyclic oxazolidinone antibiotic compounds” (Idorsia Pharmaceuticals Ltd, priority 2008, dated 2017)
# Tested on: M. catarrhalis A894
# Experiment: Minimal inhibitory concentration (MIC), microdilution method in cation-adjusted Mueller-Hinton Broth (CLSI M7-A7)
# Type: cell-based
# Settings: Moraxella catarrhalis, strain A894
# Protocol: Minimal inhibitory concentrations (MICs; mg/1) were determined in cation-adjusted Mueller-Hinton Broth by a microdilution method following the description given in “Methods for Dilution Antimicrobial Susceptibility Tests for Bacteria that Grow Aerobically”, Approved standard, 7th ed., Clinical and Laboratory Standards Institute (CLSI) Document M7-A7, Wayne, Pa., USA, 2006.
row,SMILES,MIC [µg/mL]
1,"O=C1CSc2ccc(N3C[C@@H](CCCNCC4Cn5c(=O)ccc6ccc(F)c4c65)OC3=O)cc2N1 (mixture of isomers) [Example 51, (RS)-9-fluoro-1-({3-[(R)-2-oxo-3-(3-oxo-3,4-dihydro-2H-benzo[1,4]thiazin-6-yl)-oxazolidin-5-yl]-propylamino}-methyl)-1,2-dihydro-pyrrolo[3,2,1-ij]quinolin-4-one]",≤ 0.031
2,"O=C1CSc2ccc(N3C[C@@H](CCCNC4Cn5c(=O)cnc6ccc(F)c4c65)OC3=O)nc2N1 (mixture of isomers) [Example 199, (RS)-7-fluoro-6-{3-[(R)-2-oxo-3-(3-oxo-3,4-dihydro-2H-pyrido[3,2-b][1,4]thiazin-6-yl)-oxazolidin-5-yl]-propylamino}-5,6-dihydro-pyrrolo[1,2,3-de]quinoxalin-3-one]",≤ 0.031
3,"O=C1CSc2ccc(N3C[C@@H](CCNCC4Cn5c(=O)ccc6ncc(F)c4c65)OC3=O)cc2N1 (mixture of isomers) [Example 28, (4RS)-3-fluoro-4-({2-[(R)-2-oxo-3-(3-oxo-3,4-dihydro-2H-benzo[1,4]thiazin-6-yl)-oxazolidin-5-yl]-ethylamino}-methyl)-4,5-dihydro-pyrrolo[3,2,1-de][1,5]naphthyridin-7-one]",≤ 0.031
4,"O=C1CSc2ccc(N3C[C@H](CCCN[C@H]4Cn5c(=O)ccc6c(CN7CCCC7)ccc4c65)OC3=O)cc2N1 [Example 123, (R)-1-{3-[(S)-2-oxo-3-(3-oxo-3,4-dihydro-2H-benzo[1,4]thiazin-6-yl)-oxazolidin-5-yl]-propylamino}-7-pyrrolidin-1-ylmethyl-1,2-dihydro-pyrrolo[3,2,1-ij]quinolin-4-one]",0.125
5,"O=C1CSc2ccc(N3C[C@H](CCCN[C@@H]4CN5C(=O)CNc6ccc(F)c4c65)OC3=O)cc2N1 [Example 160, (S)-7-fluoro-6-{3-[(S)-2-oxo-3-(3-oxo-3,4-dihydro-2H-benzo[1,4]thiazin-6-yl)-oxazolidin-5-yl]-propylamino}-1,2,5,6-tetrahydro-pyrrolo[1,2,3-de]quinoxalin-3-one]",≤ 0.031
6,"O=C1CSc2ccc(N3C[C@H](CCN(CCCO)CC4Cn5c(=O)ccc6ccc(F)c4c65)OC3=O)cc2N1 (mixture of isomers) [Example 90, (RS)-9-fluoro-1-[((3-hydroxy-propyl)-{2-[(S)-2-oxo-3-(3-oxo-3,4-dihydro-2H-benzo[1,4]thiazin-6-yl)-oxazolidin-5-yl]-ethyl}-amino)-methyl]-1,2-dihydro-pyrrolo[3,2,1-ij]quinolin-4-one]",≤ 0.031
7,"O=C1CSc2ccc(N3C[C@@H](CCCN[C@@H]4Cn5c(=O)ccc6ccc(F)c4c65)OC3=O)nc2N1 [Example 192, (S)-9-fluoro-1-{3-[(R)-2-oxo-3-(3-oxo-3,4-dihydro-2H-pyrido[3,2-b][1,4]thiazin-6-yl)-oxazolidin-5-yl]-propylamino}-1,2-dihydro-pyrrolo[3,2,1-ij]quinolin-4-one]",≤ 0.031
8,"CCCCc1ccc(N2C[C@@H](CNCC3Cn4c(=O)ccc5ccc(F)c3c54)OC2=O)cc1 (mixture of isomers) [Example 38, (RS)-1-({[(R)-3-(4-butyl-phenyl)-2-oxo-oxazolidin-5-ylmethyl]-amino}-methyl)-9-fluoro-1,2-dihydro-pyrrolo[3,2,1-ij]quinolin-4-one]",16
9,"O=C1COc2ccc(N3C[C@H](CCCN[C@@H]4Cn5c(=O)ccc6cccc4c65)OC3=O)cc2N1 [Example 86, (S)-1-{3-[(S)-2-oxo-3-(3-oxo-3,4-dihydro-2H-benzo[1,4]oxazin-6-yl)-oxazolidin-5-yl]-propylamino}-1,2-dihydro-pyrrolo[3,2,1-ij]quinolin-4-one]",≤ 0.031

# Continued, values first:
row,MIC [µg/mL],SMILES
1,≤ 0.031,"O=C1CSc2ccc(N3C[C@@H](CCCN[C@@H]4Cn5c(=O)ccc6ncc(F)c4c65)OC3=O)cc2N1 [Example 145, (S)-3-fluoro-4-{3-[(R)-2-oxo-3-(3-oxo-3,4-dihydro-2H-benzo[1,4]thiazin-6-yl)-oxazolidin-5-yl]-propylamino}-4,5-dihydro-pyrrolo[3,2,1-de][1,5]naphthyridin-7-one]"
2,≤ 0.031,"O=C1COc2ccc(N3C[C@H](CCCN[C@@H]4Cn5c(=O)cnc6ccc(F)c4c65)OC3=O)cc2N1 [Example 80, (S)-7-fluoro-6-{3-[(S)-2-oxo-3-(3-oxo-3,4-dihydro-2H-benzo[1,4]oxazin-6-yl)-oxazolidin-5-yl]-propylamino}-5,6-dihydro-pyrrolo[1,2,3-de]quinoxalin-3-one]"
3,≤ 0.031,"O=C1CSc2ccc(N3C[C@H](CCCN[C@@H]4Cn5c(=O)ccc6cccc4c65)OC3=O)nc2N1 [Example 136, (S)-1-{3-[(S)-2-oxo-3-(3-oxo-3,4-dihydro-2H-pyrido[3,2-b][1,4]thiazin-6-yl)-oxazolidin-5-yl]-propylamino}-1,2-dihydro-pyrrolo[3,2,1-ij]quinolin-4-one]"
4,≤ 0.031,"O=C1CSc2ccc(N3C[C@@H](CCCN[C@H]4Cn5c(=O)cnc6cccc4c65)OC3=O)cc2N1 [Example 64, (R)-6-{3-[(R)-2-oxo-3-(3-oxo-3,4-dihydro-2H-benzo[1,4]thiazin-6-yl)-oxazolidin-5-yl]-propylamino}-5,6-dihydro-pyrrolo[1,2,3-de]quinoxalin-3-one]"
5,≤ 0.031,"O=C1CSc2ccc(N3C[C@@H](CNCC4Cn5c(=O)cnc6cccc4c65)OC3=O)cc2N1 (mixture of isomers) [Example 110, (RS)-6-({[(R)-2-oxo-3-(3-oxo-3,4-dihydro-2H-benzo[1,4]thiazin-6-yl)-oxazolidin-5-ylmethyl]-amino}-methyl)-5,6-dihydro-pyrrolo[1,2,3-de]quinoxalin-3-one]"
6,≤ 0.031,"O=C1CSc2ccc(N3C[C@@H](CCNC[C@@H]4Cn5c(=O)ccc6nccc4c65)OC3=O)cc2N1 [Example 15, (4R)-4-({2-[(R)-2-oxo-3-(3-oxo-3,4-dihydro-2H-benzo[1,4]thiazin-6-yl)-oxazolidin-5-yl]-ethylamino}-methyl)-4,5-dihydro-pyrrolo[3,2,1-de][1,5]naphthyridin-7-one]"
7,0.031,"O=C1CSc2ccc(N3C[C@H](CCNC[C@H]4Cn5c(=O)ccc6nccc4c65)OC3=O)cc2N1 [Example 77, (S)-4-({2-[(S)-2-oxo-3-(3-oxo-3,4-dihydro-2H-benzo[1,4]thiazin-6-yl)-oxazolidin-5-yl]-ethylamino}-methyl)-4,5-dihydro-pyrrolo[3,2,1-de][1,5]naphthyridin-7-one]"
8,≤ 0.031,"O=C1CSc2ccc(N3C[C@@H](CCCNC4Cn5c(=O)ccc6ccc(Br)c4c65)OC3=O)cc2N1 (mixture of isomers) [Example 116, (RS)-9-bromo-1-{3-[(R)-2-oxo-3-(3-oxo-3,4-dihydro-2H-benzo[1,4]thiazin-6-yl)-oxazolidin-5-yl]-propylamino}-1,2-dihydro-pyrrolo[3,2,1-ij]quinolin-4-one]"
9,0.25,"O=C1CSc2ccc(N3C[C@@H](CCN[C@@H]4Cn5c(=O)cnc6cccc4c65)OC3=O)cc2N1 [Example 54, (S)-6-{2-[(R)-2-oxo-3-(3-oxo-3,4-dihydro-2H-benzo[1,4]thiazin-6-yl)-oxazolidin-5-yl]-ethylamino}-5,6-dihydro-pyrrolo[1,2,3-de]quinoxalin-3-one]"
10,≤ 0.031,"O=C1CSc2ccc(N3C[C@H](CCNC[C@@H]4Cn5c(=O)ccc6nccc4c65)OC3=O)cc2N1 [Example 78, (R)-4-({2-[(S)-2-oxo-3-(3-oxo-3,4-dihydro-2H-benzo[1,4]thiazin-6-yl)-oxazolidin-5-yl]-ethylamino}-methyl)-4,5-dihydro-pyrrolo[3,2,1-de][1,5]naphthyridin-7-one]"
